Laboratory results from paper PMC10140010 (Investigational New Drugs, 2023).
Where “and” joins values, the source holds several entries; their conditions need not be identical. Equal entries are not always repeated.

Tests used:
[1] = biological target: FGFR1 (Homo sapiens, UniProt P11362); assay: Z'-LYTE kinase selectivity
[2] = test system: OATP1B3; assay: Uptake inhibitor investigation in HEK293 cells expressing transporter; format: in vitro ADME
[3] = test system: P-gp/BCRP/MRP2; assay: ABC efflux transporter substrate investigation on Caco-2 cells; details: for efflux ratio at 0.5 µM / efflux ratio at 5 µM / efflux ratio at 50 µM: human
[4] = test system: phosphorylation of ALK, AKT, ERK, STAT3 in NCI-H3122 cells; assay: Western blot of ALK and downstream signaling phosphorylation; format: cell-based, human; details: 2 h incubation
Procedure: In general, the cells were exposed to the drug and were harvested for western blot analysis. SDS-PAGE was used to separate the proteins of interest, which were then transferred to a nitrocellulose (NC) filtration membrane and soaked in a blocking solution [5% non-fat dry milk in tris-buffered saline with Tween 20 (TBST)] for 1 h at room temperature. Thereafter, the membrane was probed overnight with primary antibodies at 4℃ and washed three times with TBST. The corresponding secondary antibody diluent was added, incubated at room temperature for 1 h, and washed 3 times with TBST. After adding the enhanced chemiluminescence developer to the NC filtration membrane, it is developed in the imaging system (ChemiDoc™ XRS^+, BIO-RAD). See Supplementary Table 2 for details of the antibodies used.

[5] = biological target: ALK^C1156Y (Homo sapiens, UniProt Q9UM73, C1156Y); assay: HTRF kinase activity assay; format: biochemical
Procedure: (§1) After the kinase proteins, Ulight-peptide species, adenosine triphosphate (ATP), and compound were mixed, the reaction was carried out at room temperature. Reactions were quenched by the addition of ethylene diamine tetraacetic acid buffer containing Eu antibody and XL665-streptavidin at the indicated time points. Plate reading was performed using an Envision (Perkin Elmer, MA, USA) multifunctional microplate reader.

[6] = biological target: EGFR wild type (Homo sapiens, UniProt P00533); assay: Z'-LYTE kinase selectivity; details: read-out: IC50 EGFR wild type
[7] = biological target: T1, MATE1 (Homo sapiens, UniProt Q96FL8); assay: in vitro
T1 sequence (Q96FL8 1-570): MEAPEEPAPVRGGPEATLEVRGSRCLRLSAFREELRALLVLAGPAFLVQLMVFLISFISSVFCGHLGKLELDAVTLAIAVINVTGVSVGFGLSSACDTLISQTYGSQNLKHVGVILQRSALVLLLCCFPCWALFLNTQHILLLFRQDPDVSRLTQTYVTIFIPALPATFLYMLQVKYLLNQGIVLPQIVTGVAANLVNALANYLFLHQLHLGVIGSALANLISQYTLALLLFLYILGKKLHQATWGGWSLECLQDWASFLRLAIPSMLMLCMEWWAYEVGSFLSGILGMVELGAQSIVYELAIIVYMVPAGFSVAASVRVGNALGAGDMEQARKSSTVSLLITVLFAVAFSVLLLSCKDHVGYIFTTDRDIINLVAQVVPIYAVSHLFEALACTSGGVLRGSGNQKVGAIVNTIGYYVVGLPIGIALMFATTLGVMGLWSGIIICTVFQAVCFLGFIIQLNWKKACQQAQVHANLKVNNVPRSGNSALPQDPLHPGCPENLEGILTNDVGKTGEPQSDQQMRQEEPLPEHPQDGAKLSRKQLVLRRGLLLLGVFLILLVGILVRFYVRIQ
Procedure: Using a stably transfected cell line of HEK293 expressing transporter OATP1B1, OATP1B3 or OCT2, formal substrate investigation tests were performed for three concentration gradients (30 µM, 3 µM, 0.3 µM) of iruplinalkib.

[8] = biological target: T2, OCT2 (Homo sapiens, UniProt O15244); assay: Uptake inhibitor investigation in HEK293 cells expressing transporter; format: in vitro ADME; details: metformin as the substrate
T2 construct: No ESH9G27; host or cells: HEK293
T2 sequence (O15244 1-555): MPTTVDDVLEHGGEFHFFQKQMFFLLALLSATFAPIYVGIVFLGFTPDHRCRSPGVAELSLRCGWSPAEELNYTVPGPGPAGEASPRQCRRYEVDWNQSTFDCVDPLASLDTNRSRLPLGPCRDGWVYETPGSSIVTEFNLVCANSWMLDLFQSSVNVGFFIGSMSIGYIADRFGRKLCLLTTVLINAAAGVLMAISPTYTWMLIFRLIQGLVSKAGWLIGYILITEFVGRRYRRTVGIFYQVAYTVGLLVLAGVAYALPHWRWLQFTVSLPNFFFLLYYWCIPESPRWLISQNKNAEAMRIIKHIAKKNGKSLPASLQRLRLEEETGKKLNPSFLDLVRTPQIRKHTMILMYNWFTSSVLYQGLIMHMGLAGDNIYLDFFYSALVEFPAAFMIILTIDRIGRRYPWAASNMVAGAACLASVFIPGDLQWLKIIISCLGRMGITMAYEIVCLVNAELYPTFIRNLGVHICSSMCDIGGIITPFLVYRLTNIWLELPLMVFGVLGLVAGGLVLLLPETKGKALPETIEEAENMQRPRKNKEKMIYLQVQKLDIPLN

[9] = biological target: ALK^WT (Homo sapiens, UniProt Q9UM73); assay: HTRF kinase activity assay; format: biochemical
Procedure: as §1

[10] = human, HEK293 cells expressing OATP1B3, probe ATV (atorvastatin), 1 μM, read-out: Inhibition rate

Sequence of ALK^WT (Q9UM73 19-1620): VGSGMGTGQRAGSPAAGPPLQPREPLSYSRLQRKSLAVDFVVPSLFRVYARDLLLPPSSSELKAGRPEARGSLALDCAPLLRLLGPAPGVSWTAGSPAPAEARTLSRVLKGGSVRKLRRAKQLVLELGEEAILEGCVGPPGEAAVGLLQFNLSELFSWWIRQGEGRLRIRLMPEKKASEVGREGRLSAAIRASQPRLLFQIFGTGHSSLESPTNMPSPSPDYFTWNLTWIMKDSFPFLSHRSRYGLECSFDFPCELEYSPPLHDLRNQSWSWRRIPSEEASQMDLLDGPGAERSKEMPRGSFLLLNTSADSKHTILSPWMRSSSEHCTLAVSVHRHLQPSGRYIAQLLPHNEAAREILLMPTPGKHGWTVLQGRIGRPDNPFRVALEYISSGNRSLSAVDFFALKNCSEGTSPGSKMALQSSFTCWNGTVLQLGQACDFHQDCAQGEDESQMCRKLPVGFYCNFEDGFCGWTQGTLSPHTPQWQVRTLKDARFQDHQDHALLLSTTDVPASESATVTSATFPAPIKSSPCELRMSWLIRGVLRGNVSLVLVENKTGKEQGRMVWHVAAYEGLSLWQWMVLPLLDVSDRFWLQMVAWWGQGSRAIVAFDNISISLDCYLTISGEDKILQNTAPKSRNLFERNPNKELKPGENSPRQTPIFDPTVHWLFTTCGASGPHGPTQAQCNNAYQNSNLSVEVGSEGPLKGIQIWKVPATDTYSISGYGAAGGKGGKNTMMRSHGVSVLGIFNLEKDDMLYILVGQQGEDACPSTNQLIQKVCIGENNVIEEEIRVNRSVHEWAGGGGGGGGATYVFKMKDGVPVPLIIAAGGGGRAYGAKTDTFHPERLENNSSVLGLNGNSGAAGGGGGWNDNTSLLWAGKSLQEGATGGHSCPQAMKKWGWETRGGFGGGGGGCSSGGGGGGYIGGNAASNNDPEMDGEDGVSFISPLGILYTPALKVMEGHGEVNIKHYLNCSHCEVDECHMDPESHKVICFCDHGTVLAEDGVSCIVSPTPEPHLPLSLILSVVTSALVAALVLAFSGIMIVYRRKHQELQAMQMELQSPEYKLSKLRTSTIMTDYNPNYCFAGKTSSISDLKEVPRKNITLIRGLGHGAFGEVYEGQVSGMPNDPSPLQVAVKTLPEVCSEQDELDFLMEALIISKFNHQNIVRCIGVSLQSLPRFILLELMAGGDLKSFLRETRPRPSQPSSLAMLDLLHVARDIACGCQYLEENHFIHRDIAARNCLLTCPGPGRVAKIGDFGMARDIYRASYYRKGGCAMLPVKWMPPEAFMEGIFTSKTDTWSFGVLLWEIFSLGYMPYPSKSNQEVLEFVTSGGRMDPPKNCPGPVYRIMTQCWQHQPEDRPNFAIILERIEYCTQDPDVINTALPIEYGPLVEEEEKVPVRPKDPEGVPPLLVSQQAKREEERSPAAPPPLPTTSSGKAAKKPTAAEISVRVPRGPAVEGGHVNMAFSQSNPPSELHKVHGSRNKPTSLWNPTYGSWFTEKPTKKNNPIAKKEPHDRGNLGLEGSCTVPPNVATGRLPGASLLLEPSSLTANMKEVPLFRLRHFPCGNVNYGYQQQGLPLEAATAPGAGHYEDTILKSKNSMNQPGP
Sequence of ALK^C1156Y (Q9UM73 19-1620 C1156Y): as the sequence (Q9UM73 19-1620) above, with C1138Y counted along it
Sequence of EGFR wild type (P00533 25-1210): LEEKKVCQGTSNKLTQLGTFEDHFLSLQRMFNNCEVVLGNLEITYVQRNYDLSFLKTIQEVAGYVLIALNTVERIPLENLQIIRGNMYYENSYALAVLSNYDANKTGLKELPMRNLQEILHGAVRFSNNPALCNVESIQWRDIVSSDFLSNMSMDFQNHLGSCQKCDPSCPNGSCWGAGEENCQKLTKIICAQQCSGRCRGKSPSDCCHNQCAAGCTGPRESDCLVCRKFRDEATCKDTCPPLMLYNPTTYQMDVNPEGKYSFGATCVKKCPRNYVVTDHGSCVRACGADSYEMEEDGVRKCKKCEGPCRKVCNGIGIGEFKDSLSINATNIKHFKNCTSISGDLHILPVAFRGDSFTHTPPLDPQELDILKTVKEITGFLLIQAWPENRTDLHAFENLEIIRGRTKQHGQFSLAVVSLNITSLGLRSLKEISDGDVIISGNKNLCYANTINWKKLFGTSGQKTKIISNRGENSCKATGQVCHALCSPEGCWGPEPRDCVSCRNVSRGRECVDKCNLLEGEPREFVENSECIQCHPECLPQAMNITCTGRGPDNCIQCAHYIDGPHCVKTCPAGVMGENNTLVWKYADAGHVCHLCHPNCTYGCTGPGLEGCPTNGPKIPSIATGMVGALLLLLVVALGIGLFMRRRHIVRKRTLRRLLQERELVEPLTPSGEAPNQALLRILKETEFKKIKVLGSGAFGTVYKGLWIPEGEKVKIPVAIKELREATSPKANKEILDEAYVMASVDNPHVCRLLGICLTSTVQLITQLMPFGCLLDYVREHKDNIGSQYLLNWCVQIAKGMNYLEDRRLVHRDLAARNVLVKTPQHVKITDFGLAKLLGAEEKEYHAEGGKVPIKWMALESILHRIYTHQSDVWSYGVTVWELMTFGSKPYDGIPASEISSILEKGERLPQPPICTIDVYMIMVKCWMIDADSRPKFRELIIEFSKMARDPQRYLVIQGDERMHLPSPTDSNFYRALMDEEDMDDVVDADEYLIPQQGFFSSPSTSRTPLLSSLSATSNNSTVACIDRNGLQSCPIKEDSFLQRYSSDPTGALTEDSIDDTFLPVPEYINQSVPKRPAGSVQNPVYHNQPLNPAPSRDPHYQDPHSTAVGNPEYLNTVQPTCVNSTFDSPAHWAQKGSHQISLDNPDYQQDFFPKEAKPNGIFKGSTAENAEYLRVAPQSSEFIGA
Sequence of FGFR1 (P11362 22-822): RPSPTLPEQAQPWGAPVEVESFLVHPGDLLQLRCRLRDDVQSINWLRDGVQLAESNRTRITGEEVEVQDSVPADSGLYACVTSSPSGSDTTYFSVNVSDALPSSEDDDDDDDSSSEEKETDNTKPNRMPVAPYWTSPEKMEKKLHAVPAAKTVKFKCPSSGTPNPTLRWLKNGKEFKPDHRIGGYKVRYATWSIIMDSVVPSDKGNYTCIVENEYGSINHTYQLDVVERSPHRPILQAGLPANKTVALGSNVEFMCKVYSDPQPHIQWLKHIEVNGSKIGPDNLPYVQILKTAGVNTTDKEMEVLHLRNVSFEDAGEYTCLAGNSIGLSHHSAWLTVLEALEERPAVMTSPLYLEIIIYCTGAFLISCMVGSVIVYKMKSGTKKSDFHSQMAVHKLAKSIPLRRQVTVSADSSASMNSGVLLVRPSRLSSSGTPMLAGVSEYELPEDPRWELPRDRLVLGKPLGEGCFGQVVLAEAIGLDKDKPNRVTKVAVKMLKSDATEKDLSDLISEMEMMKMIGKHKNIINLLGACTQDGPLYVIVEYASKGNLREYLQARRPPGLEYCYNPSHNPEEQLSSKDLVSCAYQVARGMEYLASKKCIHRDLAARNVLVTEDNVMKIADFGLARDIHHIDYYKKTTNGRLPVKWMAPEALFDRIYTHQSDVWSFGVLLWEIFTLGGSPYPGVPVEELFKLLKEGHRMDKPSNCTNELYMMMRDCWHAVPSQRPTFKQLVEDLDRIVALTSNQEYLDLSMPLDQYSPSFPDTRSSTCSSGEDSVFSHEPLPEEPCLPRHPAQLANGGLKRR

COc1cc(N2CCC3(CCN(C)CC3)CC2)ccc1Nc1ncc(Cl)c(Nc2ccccc2P(C)(C)=O)n1 [Iruplinalkib]
IC50 [1]: 249 ± 71 nM | inhibition of OATP1B3 uptake activity ([2]; HEK293): can inhibit the uptake activity | inhibition at 0.5 μM [2, 10]: 7.2% | inhibition at 5 μM [2, 10]: 15.3% | inhibition at 50 μM [2, 10]: 41.1% | substrate of BCRP ([3]; Caco-2): not for breast cancerresistance protein (BCRP) | substrate of P-gp ([3]; Caco-2): transported substrate | Exhaust Ratio Mean ([3]; Iruplinalkib 0.5 µM as substrate, with Ko143 10 µM): 20.95 | Exhaust Ratio Mean ([3]; Iruplinalkib 5 µM as substrate, with Ko143 10 µM): 26.14 | Exhaust Ratio Mean ([3]; Iruplinalkib 5 µM as substrate, with Verapamil 50 µM): 2.626 | efflux ratio at 0.5 µM ([3]; Caco-2): 20.3 | efflux ratio at 5 µM ([3]; Caco-2): 84.2 | efflux ratio at 50 µM ([3]; Caco-2): 8.02 | efflux ratio at 0.5 µM ([3]; Caco-2, with Elacridar 10 µM): 2.81 | efflux ratio at 5 µM ([3]; Caco-2, with Elacridar 10 µM): 0.605 | efflux ratio at 50 µM ([3]; Caco-2, with Elacridar 10 µM): 0.614 | efflux ratio at 50 µM ([3]; Caco-2, with Ko143 10 µM): 9.89 | efflux ratio at 0.5 µM ([3]; Caco-2, with Verapamil 50 µM): 3.46 | efflux ratio at 50 µM ([3]; Caco-2, with Verapamil 50 µM): 1.95 | phosphorylation level of STAT3 [4]: not STAT3 | phosphorylation levels of ALK, AKT, ERK [4]: reduced | IC50 [5]: 9.28 nM and < 10 nM | IC50 [6]: 35 nM | inhibition at 0.5 μM [7]: 46.4% | inhibition at 5 μM [7]: 94.5% | inhibition at 50 μM [7]: 112% | inhibition of OCT2 uptake [8]: only a weak inhibitory effect | IC50 [9]: 5.38 nM and < 10 nM
